Converted amounts (≈) assume the structure as drawn. Like-named read-outs stand apart in the source and are kept apart here.
How the values were obtained:
LLC/KSA tumors = format: in vivo
Description: (§1) For tumor growth studies either LLC/KSA or CT26/KSA tumors were implanted subcutaneously on the backs of mice. For LLC/KSA studies, tumors were transplanted from several stock tumors that had been injected with a single cell suspension of 1×10^6 cells in 100 ul of PBS. After about two weeks, tumors were aseptically collected, passed through a sieve fitted with a 150 μm screen. Cells were then passed through a syringe and 23 gauge needle tow or three times, washed twice, and resuspended in PBS. A single cell suspension of 1×10^6 LLC/KSA cells in 100 ul of PBS was injected subcutaneously using a 30 ½ gauge needle on the backs of mice. For CT26/KSA studies, cells growing exponentially in culture were injected as a single cell suspension of 1×10^6 cells in 100 μl of PBS. After tumors had become established, about 2 weeks after implantation, dosing was initiated on Day 0. Tumors were measured with calipers in three dimensions twice weekly. Tumor volumes were calculated using the equation: Volume=½×4/3π(L/2×W/2×H) where L=length, W=width and H=height of the tumor. Animals were weighed and general health was monitored during the course of the study. When tumors became necrotic or if animals became moribund, the animals were euthanized by CO2 asphyxiation.
Data are presented in graphic form. Graphs depict individual or average tumor volumes (+/− SEM) during and after dosing. Data are also expressed as the percent of control of average tumor volumes from treated mice relative to vehicle treated mice. Student's t test was performed on the individual tumor volumes to determine significant differences.

[1] = tested on: multidrug resistant tumors; settings: cited from earlier work
P-glycoprotein = P-glycoprotein (Homo sapiens, UniProt P08183); settings: cited from earlier work
P-glycoprotein, sequence (P08183 whole entry): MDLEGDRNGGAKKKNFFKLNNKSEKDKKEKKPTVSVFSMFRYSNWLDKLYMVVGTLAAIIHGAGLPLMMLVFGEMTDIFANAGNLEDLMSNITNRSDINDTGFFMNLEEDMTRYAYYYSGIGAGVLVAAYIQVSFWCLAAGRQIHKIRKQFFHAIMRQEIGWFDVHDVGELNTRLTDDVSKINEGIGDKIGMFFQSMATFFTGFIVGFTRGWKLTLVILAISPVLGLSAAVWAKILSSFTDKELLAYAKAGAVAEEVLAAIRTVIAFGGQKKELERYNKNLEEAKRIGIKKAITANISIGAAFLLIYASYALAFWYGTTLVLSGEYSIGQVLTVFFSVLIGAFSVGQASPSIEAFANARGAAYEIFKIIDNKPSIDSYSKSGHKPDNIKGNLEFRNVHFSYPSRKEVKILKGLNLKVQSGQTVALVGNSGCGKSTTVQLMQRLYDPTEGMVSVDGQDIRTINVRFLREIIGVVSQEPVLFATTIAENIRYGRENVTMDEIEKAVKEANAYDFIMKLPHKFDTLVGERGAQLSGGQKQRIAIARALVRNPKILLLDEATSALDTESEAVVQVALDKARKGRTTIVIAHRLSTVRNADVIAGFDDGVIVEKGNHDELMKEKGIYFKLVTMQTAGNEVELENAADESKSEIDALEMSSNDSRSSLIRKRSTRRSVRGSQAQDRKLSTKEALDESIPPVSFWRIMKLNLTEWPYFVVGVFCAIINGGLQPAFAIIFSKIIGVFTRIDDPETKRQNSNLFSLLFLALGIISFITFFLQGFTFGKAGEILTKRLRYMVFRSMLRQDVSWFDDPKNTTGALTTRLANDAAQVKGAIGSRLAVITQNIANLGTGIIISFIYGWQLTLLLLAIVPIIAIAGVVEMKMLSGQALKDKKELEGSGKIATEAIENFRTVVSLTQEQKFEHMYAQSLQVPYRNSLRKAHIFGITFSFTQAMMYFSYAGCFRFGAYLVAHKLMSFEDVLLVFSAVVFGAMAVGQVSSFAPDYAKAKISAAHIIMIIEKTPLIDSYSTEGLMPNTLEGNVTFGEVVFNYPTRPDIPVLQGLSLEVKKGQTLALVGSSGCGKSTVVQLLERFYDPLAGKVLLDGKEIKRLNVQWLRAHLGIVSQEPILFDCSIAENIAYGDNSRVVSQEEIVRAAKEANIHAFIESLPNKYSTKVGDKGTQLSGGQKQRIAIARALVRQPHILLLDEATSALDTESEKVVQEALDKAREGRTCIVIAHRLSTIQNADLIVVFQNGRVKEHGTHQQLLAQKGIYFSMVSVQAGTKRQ

[2] = cited from earlier work
[3] = tested on: lung carcinoma subcutaneous tumors; test: Tumor growth assay, established lung carcinoma subcutaneous tumors; format: in vivo, mouse; settings: FIG. 9C; cyclophosphamide single dose 80 mg/kg; huKS-IL2 20 μg x 5 daily doses, 3 days after cyclophosphamide in combination; Day 20
[4] = tested on: breast carcinoma subcutaneous tumors; test: Tumor growth assay, established breast carcinoma subcutaneous tumors; format: in vivo, mouse; settings: FIG. 9B; cyclophosphamide single dose 80 mg/kg; huKS-IL2 30 μg x 5 daily doses, 3 days after cyclophosphamide in combination; Day 25
[5] = tested on: 4T1 breast carcinoma cells; settings: FIG. 9; cyclophosphamide single dose 15 or 40 mg/kg; combination: huKS-IL2 15 ug/day for 5 days from three days later
Description: 4T1 breast carcinoma cells were injected intravenously into immuno-competent mice to establish pulmonary metastases 3 days before treatment.

[6] = tested on: 4T1/KSA breast carcinoma cells; test: Experimental lung metastasis model with 4T1/KSA cells; format: in vivo, mouse; settings: for reduction of average lung weights: FIG. 4, combination with KS-IL2 15 μg/dose x 3 days given 4 hr after paclitaxel
Description: For experimental lung metastases studies, a single cell suspension of 2.5×10^5 4T1/KSA cells in 100 μl of PBS was slowly injected using a 27½ gauge needle into the lateral tail vein on Day 0. About 3 weeks-after inoculation animals were sacrificed; their lungs were removed and weighed. […] Data are presented in graphic form. Graphs depict average tumor burdens (+/− SEM) at time of sacrifice. Tumor burden was determined by subtracting the weight of a normal lung from the weight of the experimental lungs.
For this experiment we used an experimental lung metastasis model induced with 4T1/KSA breast carcinoma cells. The doses of the drugs were selected to be sub-optimal by themselves so that any potential additive or synergistic activity could be observed.

[7] = tested on: CT26/KSA colon carcinoma skin tumors; test: CT26/KSA established skin tumor growth assay; format: in vivo, mouse; settings: paclitaxel single dose 75 mg/kg
Description: as §1
Data are presented in graphic form. Graphs depict individual or average tumor volumes (+/− SEM) during and after dosing. […]

LLC/KSA cells = test: Cytotoxicity assay (MTS, verified by crystal violet); format: cell-based; settings: Mus musculus, 144 h; read-out: Paclitaxel IC50
Description: (§2) The cell lines engineered for use in animal models (example 1) were tested for their sensitivity to taxane-induced cytotoxicity in cell culture in the presence or absence of the an IL-2 based immunocytokine consisting of the humanized form of the KS-1/4 antibody fused at the carboxyl terminus of the H chain to human IL-2 (huKS-huγ1-huIL2, hereafter abbreviated, KS-IL2). Cells were seeded at 1000 cell/well in 96 well flat-bottom plates and incubated for 24 hours at 37° C., 7% CO2. Paclitaxel, at 2-fold dilutions from 200 ng/ml to 3.125 ng/ml, KS-IL2, at 200 ng/ml and IL-2, at 33.3 ng/ml (the equivalent amount of IL-2 in KS-IL2) were added in duplicate to the cell culture plates and incubated for 6 days at 37° C., 7% CO2. The MTS calorimetric assay (Promega), a measure of cell viability based on the cellular conversion of a tetrazolium salt, was performed directly in the 96 well plates. After plates were read and recorded, viable adherent cells were stained with Crystal violet (Sigma, St. Louis, Mo). Crystal violet stained plates were used to verify MTS assay results. […] The IC50 is the concentration of drug that produced cytotoxicity at a level of 50% of control.
(§3) A cytotoxicity assay was performed with paclitaxel (3 to 200 ng/ml) alone or combined with KS-IL2 (200 ng/ml) or IL-2 (33.3 ng/ml, the equivalent amount of IL-2 in KS-IL2) against CT26/KSA, LLC/KSA and 4T1/KSA cells.

CT26/KSA cells = test: as above; format: cell-based; settings: Mus musculus, CT26, 144 h; read-out: Paclitaxel IC50
Description: as §2, §3

[8] = tested on: CT26/KSA liver metastases; settings: FIG. 6, combination: KS-IL2 7 ug for 5 days from one day later
Description: For experimental hepatic metastases studies, mice were anesthetized using 80 mg/kg ketamine HCL (Fort Dodge Animal Health, Fort Dodge, Iowa) and 5 mg/kg xylazine (Bayer, Shawnee Mission, Kans.). A single cell suspension of 1×10^5 CT26/KSA cells in 100 μl of DMEM containing 25 mM HEPES (GIBCO) was injected using a 27½ gauge needle beneath the splenic capsule over a period of 60 seconds on Day 0. After another 2 minutes the splenic vessels were cauterized with a cautery unit (Roboz, Rockville, Md.) and the spleen removed. Animals were sutured using autoclips. Three weeks after inoculation the animals were sacrificed; their livers were removed and weighed. The livers were then fixed and stained in Bouin's solution (Sigma, St. Louis Mo.).
Graphs depict average tumor burdens (+/− SEM) at the time of sacrifice. Tumor burdens were determined by subtracting the weight of a normal liver from the weight of the experimental livers. Data are also expressed as the percent of control of the average tumor burden from treated mice relative to vehicle treated mice. Student's t test was performed on the individual tumor burdens to determine significant differences.
A second experiment was performed using the CT26/KSA model, this time testing the effect of combined therapy on established liver metastases and again using the 24 hr delay between paclitaxel administration and KS-IL2 treatment. We also compared the dose response of paclitaxel in the combination therapy. Mice were injected with 25, 50, or 75 mg/kg of paclitaxel on Day 5 after metastasis induction, alone or followed one day later with KS-IL2 (7 ug) for 5 days.

4T1/KSA cells = test: Cytotoxicity assay (MTS, verified by crystal violet); format: cell-based; settings: Mus musculus, 144 h; read-out: Paclitaxel IC50
Description: as §2, §3

[9] = comparative statement, Polizzi et al. 1999
[10] = FIG. 3, paclitaxel multiple doses 50 mg/kg every other day, combination: KS-IL2 one week following paclitaxel

Compound: N.N.O=C([O-])C1(C(=O)[O-])CCC1.[Pt+2] [Carboplatin]
- effect on tumor growth / average tumor volume on Day 20 (LLC/KSA tumors; FIG. 10, Carboplatin 75 mg/kg Day 0, KS-IL2 20 ug per day for 5 days, three days after Carboplatin in combination): modest decrease

Compound: CC(=O)O[C@H]1C(=O)[C@@]2(C)[C@H]([C@H](OC(=O)c3ccccc3)[C@]34OC(=O)O[C@H]3[C@H](OC(=O)[C@H](O)[C@H](CC(C)C)NC(=O)OC(C)(C)C)C(C)=C1C4(C)C)[C@]1(OC(C)=O)CO[C@@H]1C[C@@H]2O [IDN5109]
- activity against multidrug resistant tumors [1]: generally more active
- substrate for P-glycoprotein (P-glycoprotein): poor substrate
- neurotoxic side effects [2, 9]: less neurotoxic side effects
- tolerated dose [2, 9]: higher tolerated dose
- oral bioavailability ([2]; in vivo, po): orally bioavailable

Compound: O=P1(N(CCCl)CCCl)NCCCO1 (centres unmarked) [cyclophosphamide]
- reduction of average tumor volumes [3]: 27%
- reduction of average tumor volumes [4]: 69%
- lung metastasis tumor burden [5]: modest reduction

Compound: CC(=O)O[C@H]1C(=O)[C@@]2(C)[C@H]([C@H](OC(=O)c3ccccc3)[C@]3(O)C[C@H](OC(=O)[C@H](O)[C@@H](NC(=O)c4ccccc4)c4ccccc4)C(C)=C1C3(C)C)[C@]1(OC(C)=O)CO[C@@H]1C[C@@H]2O [paclitaxel]
- weight loss, comparison of groups ([6]; 25 mg/kg of paclitaxel given 3 times every other day): greatest weight loss
- reduction of average lung weights ([6]; paclitaxel multiple doses 25 mg/kg x 3 days): 49%
- reduction of average lung weights ([6]; paclitaxel single dose 75 mg/kg): 43%
- effect on tumor growth ([7]; Example 9, huKS-muγ2a-muIL12 5 μg per day for 5 days, starting 24 hr after paclitaxel in combination): very little effect
- effect on tumor growth, alone ([7]; FIG. 5): no effect
- IC50 (LLC/KSA cells): 0.006 µg/mL (≈ 0.00703 µM)
- IC50 (CT26/KSA cells): 0.027 µg/mL (≈ 0.0316 µM)
- tumor burden ([8]; paclitaxel 25 mg/kg on Day 5): 49 % of control
- tumor burden ([8]; paclitaxel 50 mg/kg on Day 5): 23 % of control
- tumor burden ([8]; paclitaxel 75 mg/kg on Day 5): 10 % of control
- IC50 (4T1/KSA cells): 0.016 µg/mL (≈ 0.0187 µM)
- effect on tumor growth, agent given alone (LLC/KSA tumors; FIG. 2, paclitaxel single dose 80 mg/kg, KS-IL2 20 μg i.v. Days 0-4): No effect
- average tumor volume (LLC/KSA tumors; [10]): 63 % of control
- tumor growth delay (TGD) (LLC/KSA tumors; [10]): 4 days
